Where “and” joins values, the source holds several entries; their conditions need not be identical. Equal values may be shown once. Read-outs that look alike come from different tables or passages of the source.
Key:
[1] = test system: DUSP6 mRNA in Capan-2 xenograft tumors; test: In vivo PD by DUSP6 qPCR and PK/PD relationship; set-up: species or system mouse; details: for inhibition at 25 mg/kg: single oral dose 25 mg/kg
Description: (§1) Tumor-bearing animals were randomized and assigned into groups (n = 1–10/group). The vehicle at 10 mL/kg or RMC-6236 at indicated doses was administered via oral gavage daily, and animals were treated for 28 days, or up to 90 days if PFS was being assessed. […] For single-dose PKPD study, mice were randomized and assigned into groups (n = 3/dose/time point). A single dose of RMC-6236 was administered orally at either 3, 10, or 25 mg/kg. Blood and tissues, including the tumor, brain, colon, ear skin, and muscle, were harvested at indicated time points. Whole blood was collected in K2EDTA Microtainer tubes, incubated for 5 minutes, and snap-frozen in liquid nitrogen. The tissue was either fixed in 10% formalin or snap-frozen in liquid nitrogen for further analysis.
(§2) RNA was extracted from at least 20 mg of tissue using an RNeasy Mini Kit (Qiagen, 74104) and a High-Throughput Tissue grinder following the manufacturer's protocol. Reverse transcription was carried out using High-Capacity cDNA Reverse Transcription Kit (ABI, 4368814) according to the manufacturer's protocol. The cDNA product was used for qPCR analysis using TaqMan Gene-Expression Master Mix (ABI, 4369016). TaqMan primer probes specific to DUSP6 (human—Hs00737962_m1, murine—Mm00518185_m1, FAM-MGB) and 18S (RNA18S1; human—Hs99999901_s1, murine—Mm03928990_g1, FAM-MGB, used as an internal control gene) were used to detect the levels from each sample in duplicates using a 10 µL final reaction volume in a 384-well clear optical reaction plate. For qPCR, Ct values of DUSP6 and 18S were obtained for analysis. DUSP6 Ct value was normalized to 18S, and then the mean relative mRNA expression levels of each group were normalized to the vehicle control group. Values were plotted as relative change in mRNA expression compared with vehicle. Means ± SEM were shown.
(§3) Concentrations of RMC-6236 in tumor or normal tissues and percentage of DUSP6 inhibition as compared with the vehicle control from individual animals were collected and analyzed post a single dose of RMC-6236 ranging from 0.3 to 100 mg/kg (Supplementary Table S6). A 3-parameter sigmoidal exposure–response model was fitted to the data in GraphPad Prism to derive EC50 and EC90 values.

[2] = test system: DUSP6 mRNA in HPAC xenograft tumors; test: In vivo PD by DUSP6 qPCR and PK/PD relationship; set-up: species or system mouse; details: for % inhibition of DUSP6 vs control: individual animals
Description: as §1, §2, §3

CCn1c(-c2cc(N3CCN(C)CC3)cnc2[C@H](C)OC)c2c3cc(ccc31)-c1csc(n1)C[C@H](NC(=O)[C@H]1C[C@@H]1C)C(=O)N1CCC[C@H](N1)C(=O)OCC(C)(C)C2 [RMC-6236]
% inhibition of DUSP6 vs control ([1]; Capan-2, study Capan-2 #3_PHA 2023, 25 mg/kg, 2h): 96.7095% and 92.9954% and 89.9208%
% inhibition of DUSP6 vs control ([1]; Capan-2, study Capan-2 #3_PHA 2023, 25 mg/kg, 4h): 97.859% and 98.4108% and 97.0955%
% inhibition of DUSP6 vs control ([1]; Capan-2, study Capan-2 #3_PHA 2023, 25 mg/kg, 24h): 98.907% and 98.6911% and 98.7269%
% inhibition of DUSP6 vs control ([1]; Capan-2, study Capan-2 #3_PHA 2023, 25 mg/kg, 48h): 96.0869% and 85.1406% and 97.2234%
% inhibition of DUSP6 vs control ([1]; Capan-2, study Capan-2 #3_PHA 2023, 50 mg/kg, 2h): 97.4183% and 94.6174% and 95.5361%
% inhibition of DUSP6 vs control ([1]; Capan-2, study Capan-2 #3_PHA 2023, 50 mg/kg, 4h): 99.0713% and 99.3957% and 99.0419%
% inhibition of DUSP6 vs control ([1]; Capan-2, study Capan-2 #3_PHA 2023, 50 mg/kg, 24h): 99.0809% and 99.0285% and 99.0385%
% inhibition of DUSP6 vs control ([1]; Capan-2, study Capan-2 #3_PHA 2023, 50 mg/kg, 48h): 95.4581% and 92.3614% and 98.0435%
% inhibition of DUSP6 vs control ([1]; Capan-2, study Capan-2 #3_PHA 2023, 100 mg/kg, 2h): 98.9837% and 95.8781% and 93.4418%
% inhibition of DUSP6 vs control ([1]; Capan-2, study Capan-2 #3_PHA 2023, 100 mg/kg, 4h): 98.7746% and 99.0452% and 98.9369%
% inhibition of DUSP6 vs control ([1]; Capan-2, study Capan-2 #3_PHA 2023, 100 mg/kg, 8h): 99.0419% and 99.2026%
% inhibition of DUSP6 vs control ([1]; Capan-2, study Capan-2 #3_PHA 2023, 100 mg/kg, 24h): 99.1943% and 99.2814% and 99.0809%
% inhibition of DUSP6 vs control ([1]; Capan-2, study Capan-2 #3_PHA 2023, 100 mg/kg, 48h): 98.7617% and 95.9908% and 98.9515%
inhibition at 10 mg/kg ([1]; Mus musculus, Capan-2, single oral dose 10 mg/kg, 8 hours after dose, read-out: inhibition of tumor DUSP6 levels (relative to vehicle control)): > 95%
inhibition at 25 mg/kg ([1]; Mus musculus, Capan-2, 8 hours after dose, read-out: inhibition of tumor DUSP6 levels (relative to vehicle control)): > 95%
inhibition at 25 mg/kg ([1]; Mus musculus, Capan-2, up to 24 hours after dose, read-out: inhibition of tumor DUSP6 levels (relative to vehicle control)): > 90%
EC50 ([1]; Mus musculus, Capan-2 xenograft tumors, read-out: EC50, inhibition of DUSP6 expression vs RMC-6236 concentration (PK/PD relationship)): 0.09 µM
EC90 ([1]; Mus musculus, Capan-2 xenograft tumors, read-out: EC90, inhibition of DUSP6 expression vs RMC-6236 concentration (PK/PD relationship)): 0.809 µM
% inhibition of DUSP6 vs control ([2]; HPAC #3, 50 mg/kg, 4h): 99.6% and 99.3%
% inhibition of DUSP6 vs control ([2]; HPAC #3, 50 mg/kg, 8h): 99.8% and 99.7%
% inhibition of DUSP6 vs control ([2]; HPAC #3, 50 mg/kg, 24h): 99.9% and 99.8%
% inhibition of DUSP6 vs control ([2]; HPAC #3, 50 mg/kg, 48h): 99.3% and 98% and 97.1%
% inhibition of DUSP6 vs control ([2]; HPAC #4, 3 mg/kg, 4h): 8.1% and 58% and 27.9%
% inhibition of DUSP6 vs control ([2]; HPAC #4, 3 mg/kg, 8h): 54.7% and 65.2% and 84.3%
% inhibition of DUSP6 vs control ([2]; HPAC #4, 3 mg/kg, 24h): 0% and 40.8% and 37.2%
% inhibition of DUSP6 vs control ([2]; HPAC #4, 3 mg/kg, 48h): 0% and 22.7% and 33.9%
% inhibition of DUSP6 vs control ([2]; HPAC #4, 10 mg/kg, 4h): 93.6% and 96.1% and 97.9%
% inhibition of DUSP6 vs control ([2]; HPAC #4, 10 mg/kg, 8h): 98.9% and 99.6% and 97.1%
% inhibition of DUSP6 vs control ([2]; HPAC #4, 10 mg/kg, 24h): 80.3% and 56.7% and 91.1%
% inhibition of DUSP6 vs control ([2]; HPAC #4, 10 mg/kg, 48h): 8.1% and 47% and 59.6%
% inhibition of DUSP6 vs control ([2]; HPAC #4, 25 mg/kg, 4h): 99.6% and 97.7% and 93.3%
% inhibition of DUSP6 vs control ([2]; HPAC #4, 25 mg/kg, 8h): 99.9% and 99.4% and 99.8%
% inhibition of DUSP6 vs control ([2]; HPAC #4, 25 mg/kg, 24h): 99.3% and 99.2% and 99.6%
% inhibition of DUSP6 vs control ([2]; HPAC #4, 25 mg/kg, 48h): 97.6% and 96.7% and 87.9%
% inhibition of DUSP6 vs control ([2]; HPAC #11, 0.3 mg/kg, 4h): 0% and 41.7%
% inhibition of DUSP6 vs control ([2]; HPAC #11, 0.3 mg/kg, 8h): 9.1% and 10.7% and 76.7%
% inhibition of DUSP6 vs control ([2]; HPAC #11, 0.3 mg/kg, 24h): 0%
% inhibition of DUSP6 vs control ([2]; HPAC #11, 0.3 mg/kg, 48h): 0%
% inhibition of DUSP6 vs control ([2]; HPAC #11, 1 mg/kg, 4h): 48.3% and 77.5% and 97.1%
% inhibition of DUSP6 vs control ([2]; HPAC #11, 1 mg/kg, 8h): 86.3% and 83.8% and 49.4%
% inhibition of DUSP6 vs control ([2]; HPAC #11, 1 mg/kg, 24h): 4.9% and 0% and 23.3%
% inhibition of DUSP6 vs control ([2]; HPAC #11, 1 mg/kg, 48h): 24.6% and 0% and 42.3%
EC50 ([2]; Mus musculus, HPAC, read-out: EC50, inhibition of DUSP6 expression vs RMC-6236 concentration (PK/PD relationship)): 0.135 µM
EC90 ([2]; Mus musculus, HPAC, read-out: EC90, inhibition of DUSP6 expression vs RMC-6236 concentration (PK/PD relationship)): 0.925 µM

Source: paper PMC11149917, “Translational and Therapeutic Evaluation of RAS-GTP Inhibition by RMC-6236 in RAS-Driven Cancers” (Cancer Discovery, 2024)
